ChEMBL document CHEMBL3885861, “Open TG-GATES”

Species: Rattus norvegicus
Assay: Open TG-GATES - Regimen: Single
Assay type: toxicity, organism-based, Sprague-Dawley
Set-up: regimen Single, gender Male, age 6 weeks
Settings: in vivo, po, 0 mg/kg, route gavage, dose level Control; for APTT / Bas / Eos / Fbg / Hb / Ht / Lym / MCH / MCHC / MCV / Mono / Neu / PT / Plat / RBC / Ret / WBC: tissue Blood; for KIDNEY_L / KIDNEY_R / KIDNEY_TOTAL: tissue Kidney; for LIVER: tissue Liver; for A/G / ALP / ALT / AST / BUN / CRE / Ca / Cl / DBIL / GLC / IP / K / LDH / Na / PL / RALB / TBIL / TC / TG / TP / gamma-GTP: tissue Plasma

## ClC(Cl)(Cl)Cl [CARBON TETRACHLORIDE]
3 h
  TERMINAL_BW: 204.7 g
  APTT: 16.7 s
  Bas: 0%
  Eos: 1%
  Fbg: 245 mg/dL
  Hb: 13 g/dL
  Ht: 37.3%
  Lym: 73.8%
  MCH: 21.7 pg
  MCHC: 34.8%
  MCV: 62.3 fL
  Mono: 3.6%
  Neu: 21.6%
  PT: 12 s
  Plat: 132.6 x10_4/uL
  RBC: 599 x10_4/ul
  Ret: 8.6%
  WBC: 103.4 x10_2/uL
  KIDNEY_L: 0.9 g
  KIDNEY_R: 0.9 g
  KIDNEY_TOTAL: 1.8 g
  LIVER: 10 g
  A/G: 1.6
  ALP: 947 IU/L
  ALT: 37.2 IU/L
  AST: 66.6 IU/L
  BUN: 13.2 mg/dL
  CRE: 0.4 mg/dL
  Ca: 11 mg/dL
  Cl: 104.2 meq/L
  DBIL: 0.3 mg/dL
  GLC: 207 mg/dL
  IP: 9 mg/dL
  K: 3.9 meq/L
  LDH: 209 IU/L
  Na: 139.6 meq/L
  PL: 179.8 mg/dL
  RALB: 3.4 g/dL
  TBIL: 0.3 mg/dL
  TC: 87.2 mg/dL
  TG: 159.6 mg/dL
  TP: 5.6 g/dL
  gamma-GTP: 0.6 IU/L
6 h
  TERMINAL_BW: 204.3 g
  APTT: 17 s
  Bas: 0%
  Eos: 0.8%
  Fbg: 230.8 mg/dL
  Hb: 13 g/dL
  Ht: 37.6%
  Lym: 69%
  MCH: 22 pg
  MCHC: 34.6%
  MCV: 63.4 fL
  Mono: 3.4%
  Neu: 26.6%
  PT: 12.1 s
  Plat: 140.4 x10_4/uL
  RBC: 593.6 x10_4/ul
  Ret: 8.9%
  WBC: 98.9 x10_2/uL
  KIDNEY_L: 0.9 g
  KIDNEY_R: 0.9 g
  KIDNEY_TOTAL: 1.8 g
  LIVER: 9 g
  A/G: 1.5
  ALP: 1166.6 IU/L
  ALT: 31.4 IU/L
  AST: 62.8 IU/L
  BUN: 9.6 mg/dL
  CRE: 0.4 mg/dL
  Ca: 10.7 mg/dL
  Cl: 104 meq/L
  DBIL: 0.094 mg/dL
  GLC: 196.8 mg/dL
  IP: 9.8 mg/dL
  K: 4.1 meq/L
  LDH: 189.2 IU/L
  Na: 139.8 meq/L
  PL: 161.4 mg/dL
  RALB: 3.3 g/dL
  TBIL: 0.2 mg/dL
  TC: 89.4 mg/dL
  TG: 61 mg/dL
  TP: 5.4 g/dL
  gamma-GTP: 1 IU/L
9 h
  TERMINAL_BW: 201.8 g
  APTT: 16.1 s
  Bas: 0%
  Eos: 0.8%
  Fbg: 222.4 mg/dL
  Hb: 12.6 g/dL
  Ht: 36.6%
  Lym: 76.6%
  MCH: 22.2 pg
  MCHC: 34.6%
  MCV: 64.2 fL
  Mono: 2.2%
  Neu: 20%
  PT: 12.2 s
  Plat: 131.9 x10_4/uL
  RBC: 570 x10_4/ul
  Ret: 9.7%
  WBC: 82.1 x10_2/uL
  KIDNEY_L: 0.9 g
  KIDNEY_R: 0.9 g
  KIDNEY_TOTAL: 1.8 g
  LIVER: 8.6 g
  A/G: 1.4
  ALP: 961.6 IU/L
  ALT: 30 IU/L
  AST: 62.6 IU/L
  BUN: 11.2 mg/dL
  CRE: 0.4 mg/dL
  Ca: 10.3 mg/dL
  Cl: 102.4 meq/L
  DBIL: 0.066 mg/dL
  GLC: 207.2 mg/dL
  IP: 10.7 mg/dL
  K: 3.7 meq/L
  LDH: 163 IU/L
  Na: 139.2 meq/L
  PL: 129.8 mg/dL
  RALB: 3.1 g/dL
  TBIL: 0.1 mg/dL
  TC: 69.8 mg/dL
  TG: 35.6 mg/dL
  TP: 5.4 g/dL
  gamma-GTP: 1.2 IU/L
24 h
  TERMINAL_BW: 215.9 g
  APTT: 18.1 s
  Bas: 0.2%
  Eos: 1%
  Fbg: 256.8 mg/dL
  Hb: 13.7 g/dL
  Ht: 38.8%
  Lym: 82%
  MCH: 22.5 pg
  MCHC: 35.3%
  MCV: 63.8 fL
  Mono: 2.4%
  Neu: 14.2%
  PT: 11.8 s
  Plat: 140.8 x10_4/uL
  RBC: 607.2 x10_4/ul
  Ret: 8%
  WBC: 105.9 x10_2/uL
  KIDNEY_L: 0.9 g
  KIDNEY_R: 0.9 g
  KIDNEY_TOTAL: 1.9 g
  LIVER: 10.6 g
  A/G: 1.6
  ALP: 1231.6 IU/L
  ALT: 37.2 IU/L
  AST: 66.6 IU/L
  BUN: 15 mg/dL
  CRE: 0.4 mg/dL
  Ca: 10.9 mg/dL
  Cl: 103 meq/L
  DBIL: 0.088 mg/dL
  GLC: 202.2 mg/dL
  IP: 7.4 mg/dL
  K: 3.8 meq/L
  LDH: 186.2 IU/L
  Na: 140 meq/L
  PL: 156.2 mg/dL
  RALB: 3.5 g/dL
  TBIL: 0.2 mg/dL
  TC: 79.2 mg/dL
  TG: 100 mg/dL
  TP: 5.7 g/dL
  gamma-GTP: 1.2 IU/L
